From patent US20230312578A1, “6H-INDOLO[2,3-B]QUINOXALINE DERIVATIVES USEFUL IN THERAPY” (Vironova Medical AB, priority 2020, published 2023)
Like-named read-outs stand apart in the source and are kept apart here.

Experiments:
Format in all cases: cell-based
HCT-15 = test: Human tumor cell line growth assay (SRB); conditions: Homo sapiens; Colon, HCT-15, 48 h
[1] = Human tumor cell line growth assay (SRB); conditions: human, HCT-15 cells (colon), HCT-15, 48 h
[2] = Human tumor cell line growth assay (SRB); conditions: human, SK-MEL-5 cells (melanoma), SK-MEL-5, 48 h
SK-MEL-5 = test: Human tumor cell line growth assay (SRB); conditions: Homo sapiens; Melanoma, SK-MEL-5, 48 h
NCI/ADR-RES = test: Human tumor cell line growth assay (SRB); conditions: Ovarian, 48 h; for CC50: read-out: LC50 (the source's name)
[3] = Human tumor cell line growth assay (SRB); conditions: human, SF-295 cells (CNS), SF-295, 48 h, read-out: LC50
SF-295 = test: Human tumor cell line growth assay (SRB); conditions: Homo sapiens; CNS, SF-295, 48 h
786-0 = test: Human tumor cell line growth assay (SRB); conditions: Renal, 786-0, 48 h
DU-145 = test: Human tumor cell line growth assay (SRB); conditions: Prostate, DU-145, 48 h; for CC50: read-out: LC50 (the source's name)
HL-60(TB) = test: Human tumor cell line growth assay (SRB); conditions: Leukemia, 48 h; for CC50: read-out: LC50 (the source's name)
KM12 = test: Human tumor cell line growth assay (SRB); conditions: Homo sapiens; Colon, KM12, 48 h
[4] = Human tumor cell line growth assay (SRB); conditions: human, KM12 cells (colon), KM12, 48 h, read-out: LC50
LOX IMVI = test: Human tumor cell line growth assay (SRB); conditions: Homo sapiens, Melanoma, 48 h
[5] = Human tumor cell line growth assay (SRB); conditions: human, LOX IMVI cells (melanoma), read-out: LC50
MDA-MB-468 = test: Human tumor cell line growth assay (SRB); conditions: Breast, MDA-MB-468, 48 h; for CC50: read-out: LC50 (the source's name)
UO-31 = test: Human tumor cell line growth assay (SRB); conditions: Renal, UO-31, 48 h; for CC50: read-out: LC50 (the source's name)
EKVX = test: Human tumor cell line growth assay (SRB); conditions: Homo sapiens, NSCLC, 48 h
[6] = Human tumor cell line growth assay (SRB); conditions: human, EKVX cells (NSCLC), read-out: LC50
HT29 = test: Human tumor cell line growth assay (SRB); conditions: Homo sapiens, HT-29; Colon, HT29, 48 h
[7] = Human tumor cell line growth assay (SRB); conditions: human, HT29 cells (colon), HT29, 48 h, read-out: LC50
[8] = Human tumor cell line growth assay (SRB); conditions: human, MOLT-4 cells (leukemia), MOLT-4, 48 h, read-out: LC50
MOLT-4 = test: Human tumor cell line growth assay (SRB); conditions: Homo sapiens; Leukemia, MOLT-4, 48 h
OVCAR-8 = test: Human tumor cell line growth assay (SRB); conditions: Ovarian, OVCAR-8, 48 h; for CC50: read-out: LC50 (the source's name)
OVCAR-4 = test: Human tumor cell line growth assay (SRB); conditions: Homo sapiens; Ovarian, OVCAR-4, 48 h
[9] = Human tumor cell line growth assay (SRB); conditions: human, OVCAR-4 cells (ovarian), OVCAR-4, 48 h, read-out: LC50
[10] = Human tumor cell line growth assay (SRB); conditions: human, SNB-75 cells (CNS), SNB-75, 48 h
SNB-75 = test: Human tumor cell line growth assay (SRB); conditions: Homo sapiens; CNS, SNB-75, 48 h
SN12C = test: Human tumor cell line growth assay (SRB); conditions: Renal, 48 h; for CC50: read-out: LC50 (the source's name)
[11] = Human tumor cell line growth assay (SRB); conditions: human, NCI-H322M cells (NSCLC), read-out: LC50
NCI-H322M = test: Human tumor cell line growth assay (SRB); conditions: Homo sapiens, NSCLC, 48 h
[12] = Human tumor cell line growth assay (SRB); conditions: human, HOP-62 cells (NSCLC), HOP-62, 48 h, read-out: LC50
HOP-62 = test: Human tumor cell line growth assay (SRB); conditions: Homo sapiens; NSCLC, HOP-62, 48 h
BT-549 = test: Human tumor cell line growth assay (SRB); conditions: Breast, BT-549, 48 h; for CC50: read-out: LC50 (the source's name)
RXF 393 = test: Human tumor cell line growth assay (SRB); conditions: Renal, RXF 393, 48 h; for CC50: read-out: LC50 (the source's name)
[13] = Human tumor cell line growth assay (SRB); conditions: human, UACC-62 cells (melanoma), UACC-62, 48 h, read-out: LC50
[14] = Human tumor cell line growth assay (SRB); conditions: human, SR cells (leukemia), read-out: LC50
SR = test: Human tumor cell line growth assay (SRB); conditions: Homo sapiens, Leukemia, 48 h
RPMI-8226 = test: Human tumor cell line growth assay (SRB); conditions: Homo sapiens; Leukemia, RPMI-8226, 48 h

## Cc1cc2nc3c4ccccc4n(CCN(C)C)c3nc2cc1C [B220, 2-(2,3-dimethyl-6H-indolo [2,3-b]quinoxalin-6-yl)-N,N-dimethylethanamine, reference compound]
HCT-15
  GI50: 1770 nM
[1]
  LC50 (concentration killing 50% of cells) at 48 h: > 100000 nM
[2]
  LC50 (concentration killing 50% of tumour cells) at 48 h: 12000 nM
SK-MEL-5
  GI50: 1700 nM
NCI/ADR-RES
  GI50: 1390 nM
  CC50: 90200 nM
[3]
  CC50 at 48 h: 42500 nM
SF-295
  GI50: 1390 nM
786-0
  GI50: 1970 nM
  LC50: 62000 nM
DU-145
  GI50: 2070 nM
  CC50: 55600 nM
HL-60(TB)
  GI50: 1990 nM
  CC50: > 100000 nM
KM12
  GI50: 1930 nM
[4]
  CC50 at 48 h: 38600 nM
LOX IMVI
  GI50: 748 nM
[5]
  CC50 at 48 h: 18900 nM
MDA-MB-468
  GI50: 1320 nM
  CC50: 9930 nM
UO-31
  GI50: 726 nM
  CC50: 91300 nM
EKVX
  GI50: 2230 nM
[6]
  CC50 at 48 h: 83900 nM
HT29
  GI50: 760 nM
[7]
  CC50 at 48 h: 45300 nM
[8]
  CC50 at 48 h: 95100 nM
MOLT-4
  GI50: 555 nM
OVCAR-8
  GI50: 1160 nM
  CC50: 87200 nM
OVCAR-4
  GI50: 2550 nM
[9]
  CC50 at 48 h: > 100000 nM
[10]
  LC50 (concentration killing 50% of cells) at 48 h: 80200 nM
SNB-75
  GI50: 1280 nM
SN12C
  GI50: 1080 nM
  CC50: > 100000 nM
[11]
  CC50 at 48 h: 31200 nM
NCI-H322M
  GI50: 1860 nM
[12]
  CC50 at 48 h: > 100000 nM
HOP-62
  GI50: 1110 nM
BT-549
  GI50: 2070 nM
  CC50: 28700 nM
RXF 393
  GI50: 1560 nM
  CC50: 12200 nM
[13]
  CC50 at 48 h: 5580 nM

## Cc1cc2nc3c4cc([N+](=O)[O-])ccc4n(CCN(C)C)c3nc2cc1C [JBA-185, 2-(2,3-dimethyl-9-nitro-6H-indolo[2,3-b]quinoxalin-6-yl)-N,N-dimethylethanamine]
HCT-15
  GI50: 349 nM
[1]
  LC50 (concentration killing 50% of cells) at 48 h: > 100000 nM
[2]
  LC50 (concentration killing 50% of tumour cells) at 48 h: 4770 nM
SK-MEL-5
  GI50: 1040 nM
NCI/ADR-RES
  GI50: 415 nM
  CC50: > 100000 nM
[14]
  CC50 at 48 h: > 100000 nM
SR
  GI50: 250 nM
[3]
  CC50 at 48 h: 8640 nM
SF-295
  GI50: 388 nM
786-0
  GI50: 757 nM
  LC50: 9560 nM
DU-145
  GI50: 540 nM
  CC50: > 100000 nM
HL-60(TB)
  GI50: 914 nM
  CC50: > 100000 nM
KM12
  GI50: 567 nM
[4]
  CC50 at 48 h: > 100000 nM
MDA-MB-468
  GI50: 374 nM
  CC50: 5300 nM
RPMI-8226
  GI50: 389 nM
UO-31
  GI50: 187 nM
  CC50: 21200 nM
EKVX
  GI50: 477 nM
[6]
  CC50 at 48 h: > 100000 nM
HT29
  GI50: 375 nM
[7]
  CC50 at 48 h: > 100000 nM
[8]
  CC50 at 48 h: > 100000 nM
MOLT-4
  GI50: 368 nM
OVCAR-8
  GI50: 550 nM
  CC50: > 100000 nM
OVCAR-4
  GI50: 452 nM
[9]
  CC50 at 48 h: > 100000 nM
[10]
  LC50 (concentration killing 50% of cells) at 48 h: 5450 nM
SNB-75
  GI50: 447 nM
SN12C
  GI50: 479 nM
  CC50: > 100000 nM
[11]
  CC50 at 48 h: > 100000 nM
NCI-H322M
  GI50: 467 nM
[12]
  CC50 at 48 h: > 100000 nM
HOP-62
  GI50: 507 nM
BT-549
  GI50: 1950 nM
  CC50: > 100000 nM
RXF 393
  GI50: 638 nM
  CC50: 5500 nM
[13]
  CC50 at 48 h: 5780 nM
